PubChem BioAssay AID2060500 (Molecular Pharmacology Branch, DTP, NCI, 2025)

System: 596521-263-R-J1-PDC complex spheroids, viability % of control
Experiment: Anticancer human tumor 596521-263-R-J1-PDC patient-derived soft tissue sarcoma cell line growth inhibition [GQUAD]
Settings: for IC50: curve of first compound; for viability, T/C: stronger effect = lower value
Method in brief: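 Viability of tumor cells grown as complex spheroids with endothelial and stromal cells, exposed to drug combinations. Top concentration at or near clinical Cmax (else 10 microM), diluted in half-log increments.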

[1] = second compound 0.0316 µM, first compound 0.0316 µM
[2] = second compound 0.0316 µM, first compound 0.1 µM
[3] = second compound 0.0316 µM, first compound 0.316 µM
[4] = second compound 0.0316 µM, first compound 1 µM
[5] = second compound 0.0316 µM, first compound 3.16 µM
[6] = second compound 0.0316 µM, first compound 10 µM
[7] = second compound 0.1 µM, first compound 0.0316 µM
[8] = second compound 0.1 µM, first compound 0.1 µM
[9] = second compound 0.1 µM, first compound 0.316 µM
[10] = second compound 0.1 µM, first compound 1 µM
[11] = second compound 0.1 µM, first compound 3.16 µM
[12] = second compound 0.1 µM, first compound 10 µM
[13] = second compound 0.316 µM, first compound 0.0316 µM
[14] = second compound 0.316 µM, first compound 0.1 µM
[15] = second compound 0.316 µM, first compound 0.316 µM
[16] = second compound 0.316 µM, first compound 1 µM
[17] = second compound 0.316 µM, first compound 3.16 µM
[18] = second compound 0.316 µM, first compound 10 µM
[19] = second compound 1 µM, first compound 0.0316 µM
[20] = second compound 1 µM, first compound 0.1 µM
[21] = second compound 1 µM, first compound 0.316 µM
[22] = second compound 1 µM, first compound 1 µM
[23] = second compound 1 µM, first compound 3.16 µM
[24] = second compound 1 µM, first compound 10 µM
[25] = second compound 3.16 µM, first compound 0.0316 µM
[26] = second compound 3.16 µM, first compound 0.1 µM
[27] = second compound 3.16 µM, first compound 0.316 µM
[28] = second compound 3.16 µM, first compound 1 µM
[29] = second compound 3.16 µM, first compound 3.16 µM
[30] = second compound 3.16 µM, first compound 10 µM
[31] = second compound 10 µM, first compound 0.0316 µM
[32] = second compound 10 µM, first compound 0.1 µM
[33] = second compound 10 µM, first compound 0.316 µM
[34] = second compound 10 µM, first compound 1 µM
[35] = second compound 10 µM, first compound 3.16 µM
[36] = second compound 10 µM, first compound 10 µM
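Also: spheroids exposed to drugs for 7 days before viability reading.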
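For viability, T/C in this document: 100% = DMSO vehicle control viability.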

O=C(NO)c1cnc(N2CCN(S(=O)(=O)c3ccc4ccccc4c3)CC2)nc1 + CN(C)c1ccc(Nc2c3ccc(NC(=O)CCN4CCCC4)cc3nc3cc(NC(=O)CCN4CCCC4)ccc23)cc1
IC50 (second compound 0.0316 µM): 112 nM
IC50 (second compound 0.1 µM): 97.3 nM
IC50 (second compound 0.316 µM): 126 nM
IC50 (second compound 1 µM): 112 nM
IC50 (second compound 3.16 µM): 76.9 nM
IC50 (second compound 10 µM): < 31.6 nM
viability, T/C [1]: 77.3%
viability, T/C [2]: 54.4%
viability, T/C [3]: 7.95%
viability, T/C [4]: 0.72%
viability, T/C [5]: 0.35%
viability, T/C [6]: 0.33%
viability, T/C [7]: 76.3%
viability, T/C [8]: 49.4%
viability, T/C [9]: 9.87%
viability, T/C [10]: 0.62%
viability, T/C [11]: 0.38%
viability, T/C [12]: 0.34%
viability, T/C [13]: 76.5%
viability, T/C [14]: 60.9%
viability, T/C [15]: 7.1%
viability, T/C [16]: 0.61%
viability, T/C [17]: 0.29%
viability, T/C [18]: 0.34%
viability, T/C [19]: 74.4%
viability, T/C [20]: 54.7%
viability, T/C [21]: 7.49%
viability, T/C [22]: 0.53%
viability, T/C [23]: 0.35%
viability, T/C [24]: 1.39%
viability, T/C [25]: 65.4%
viability, T/C [26]: 45.4%
viability, T/C [27]: 7.07%
viability, T/C [28]: 0.61%
viability, T/C [29]: 0.37%
viability, T/C [30]: 0.78%
viability, T/C [31]: 48.2%
viability, T/C [32]: 35.6%
viability, T/C [33]: 3.88%
viability, T/C [34]: 0.37%
viability, T/C [35]: 0.37%
viability, T/C [36]: 0.34%

CC(C)(O)C1CCC(Nc2ccc3ncc(-c4cccc(C(F)(F)F)c4)n3n2)CC1 (stereo not given) + CN(C)c1ccc(Nc2c3ccc(NC(=O)CCN4CCCC4)cc3nc3cc(NC(=O)CCN4CCCC4)ccc23)cc1
IC50 (second compound 0.0316 µM): 1420 nM
IC50 (second compound 0.1 µM): 1370 nM
IC50 (second compound 0.316 µM): 1560 nM
IC50 (second compound 1 µM): 1720 nM
IC50 (second compound 3.16 µM): 1520 nM
IC50 (second compound 10 µM): 915 nM
viability, T/C [1]: 96.8%
viability, T/C [2]: 97.3%
viability, T/C [3]: 81.7%
viability, T/C [4]: 65%
viability, T/C [5]: 16.9%
viability, T/C [6]: 19.1%
viability, T/C [7]: 94.2%
viability, T/C [8]: 84.5%
viability, T/C [9]: 87%
viability, T/C [10]: 61%
viability, T/C [11]: 20.4%
viability, T/C [12]: 21.6%
viability, T/C [13]: 97%
viability, T/C [14]: 113%
viability, T/C [15]: 83.4%
viability, T/C [16]: 70.5%
viability, T/C [17]: 19.9%
viability, T/C [18]: 20.2%
viability, T/C [19]: 92.9%
viability, T/C [20]: 95.9%
viability, T/C [21]: 78.6%
viability, T/C [22]: 75.5%
viability, T/C [23]: 19.1%
viability, T/C [24]: 24%
viability, T/C [25]: 87.1%
viability, T/C [26]: 97.3%
viability, T/C [27]: 83.8%
viability, T/C [28]: 66.4%
viability, T/C [29]: 18.1%
viability, T/C [30]: 24.2%
viability, T/C [31]: 65.3%
viability, T/C [32]: 61.7%
viability, T/C [33]: 61.1%
viability, T/C [34]: 49%
viability, T/C [35]: 13.8%
viability, T/C [36]: 13.1%

CCCS(=O)(=O)Nc1ccc(F)c(C(=O)c2c[nH]c3ncc(-c4ccc(Cl)cc4)cc23)c1F + Cc1[nH]c2ccc(F)cc2c1-c1nc2c3cccnc3c3ncccc3c2[nH]1
IC50 (second compound 0.0316 µM): 504 nM
IC50 (second compound 0.1 µM): 358 nM
IC50 (second compound 0.316 µM): 836 nM
IC50 (second compound 1 µM): 498 nM
IC50 (second compound 3.16 µM): 376 nM
IC50 (second compound 10 µM): 419 nM
viability, T/C [1]: 107%
viability, T/C [2]: 73.5%
viability, T/C [3]: 56.2%
viability, T/C [4]: 41.7%
viability, T/C [5]: 40.5%
viability, T/C [6]: 40.2%
viability, T/C [7]: 89.3%
viability, T/C [8]: 74.2%
viability, T/C [9]: 51.8%
viability, T/C [10]: 36.8%
viability, T/C [11]: 42.8%
viability, T/C [12]: 31.1%
viability, T/C [13]: 112%
viability, T/C [14]: 81.4%
viability, T/C [15]: 61.1%
viability, T/C [16]: 44.4%
viability, T/C [17]: 46.3%
viability, T/C [18]: 33.1%
viability, T/C [19]: 84.4%
viability, T/C [20]: 81.6%
viability, T/C [21]: 57.2%
viability, T/C [22]: 38.4%
viability, T/C [23]: 44.4%
viability, T/C [24]: 29.7%
viability, T/C [25]: 92.6%
viability, T/C [26]: 70.4%
viability, T/C [27]: 53.2%
viability, T/C [28]: 37.6%
viability, T/C [29]: 37.9%
viability, T/C [30]: 32%
viability, T/C [31]: 74.6%
viability, T/C [32]: 58.5%
viability, T/C [33]: 58%
viability, T/C [34]: 38.1%
viability, T/C [35]: 39.3%
viability, T/C [36]: 30.4%

COc1ncnc(C2CC2)c1-c1ncc2cnn(Cc3ccc(-c4nc(C(F)(F)F)cn4C(C)C)cc3)c2n1 + Cc1cnc(CNC(=O)c2c(=O)c3ccc(N4CCCN(C)CC4)nc3n3c2sc2ccccc23)cn1
IC50 (second compound 0.0316 µM): > 10000 nM
IC50 (second compound 0.1 µM): > 10000 nM
IC50 (second compound 0.316 µM): > 10000 nM
IC50 (second compound 1 µM): > 10000 nM
IC50 (second compound 3.16 µM): > 10000 nM
IC50 (second compound 10 µM): < 31.6 nM
viability, T/C [1]: 90.2%
viability, T/C [2]: 90.6%
viability, T/C [3]: 78%
viability, T/C [4]: 90.4%
viability, T/C [5]: 86.9%
viability, T/C [6]: 79%
viability, T/C [7]: 84.4%
viability, T/C [8]: 77.2%
viability, T/C [9]: 74.7%
viability, T/C [10]: 77.1%
viability, T/C [11]: 85%
viability, T/C [12]: 79.2%
viability, T/C [13]: 72%
viability, T/C [14]: 74.2%
viability, T/C [15]: 67.9%
viability, T/C [16]: 79.5%
viability, T/C [17]: 70.2%
viability, T/C [18]: 65.7%
viability, T/C [19]: 62.8%
viability, T/C [20]: 65%
viability, T/C [21]: 65.1%
viability, T/C [22]: 63.1%
viability, T/C [23]: 64%
viability, T/C [24]: 61.9%
viability, T/C [25]: 53.1%
viability, T/C [26]: 59.2%
viability, T/C [27]: 51.6%
viability, T/C [28]: 48.6%
viability, T/C [29]: 59.8%
viability, T/C [30]: 49.9%
viability, T/C [31]: 44.6%
viability, T/C [32]: 25.6%
viability, T/C [33]: 41.5%
viability, T/C [34]: 42.6%
viability, T/C [35]: 40.7%
viability, T/C [36]: 0.28%

Nc1ccn(C2OC(CO)C(O)C2(F)F)c(=O)n1 (stereo not given) + Cc1cnc(CNC(=O)c2c(=O)c3ccc(N4CCCN(C)CC4)nc3n3c2sc2ccccc23)cn1
IC50 (second compound 0.0316 µM): 78.7 nM
IC50 (second compound 0.1 µM): 308 nM
IC50 (second compound 0.316 µM): 68 nM
IC50 (second compound 1 µM): 77.2 nM
IC50 (second compound 3.16 µM): < 31.6 nM
IC50 (second compound 10 µM): < 31.6 nM
viability, T/C [1]: 58.3%
viability, T/C [2]: 44.5%
viability, T/C [3]: 49.4%
viability, T/C [4]: 51%
viability, T/C [5]: 47.4%
viability, T/C [6]: 46.8%
viability, T/C [7]: 60.1%
viability, T/C [8]: 51%
viability, T/C [9]: 53.3%
viability, T/C [10]: 44.7%
viability, T/C [11]: 38.6%
viability, T/C [12]: 35.3%
viability, T/C [13]: 61.2%
viability, T/C [14]: 43.9%
viability, T/C [15]: 43.9%
viability, T/C [16]: 49.8%
viability, T/C [17]: 41.6%
viability, T/C [18]: 41.8%
viability, T/C [19]: 59.6%
viability, T/C [20]: 47.6%
viability, T/C [21]: 42%
viability, T/C [22]: 47.6%
viability, T/C [23]: 52.2%
viability, T/C [24]: 43%
viability, T/C [25]: 47.9%
viability, T/C [26]: 41.9%
viability, T/C [27]: 42.2%
viability, T/C [28]: 40.2%
viability, T/C [29]: 40.9%
viability, T/C [30]: 42.6%
viability, T/C [31]: 47%
viability, T/C [32]: 35.5%
viability, T/C [33]: 38.9%
viability, T/C [34]: 39.6%
viability, T/C [35]: 42.7%
viability, T/C [36]: 23.4%
